Reference: the supplement of paper PMC10883282

Experiments:
Assay in all cases: relative viability vs DMSO control (72 h) (fraction); higher = more viable cells
A204 = system: A204
Procedure, shortened: (§1)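 Relative viability was measured with ATPLite and expressed as percent growth, averaged across up to triplicate wells. Sarcoma cell lines had been seeded in 384-well plates to reach 80–90% confluence, dosed after 24 h, and incubated 72 h at 37 °C, 5% CO2. All data were rescaled on a scale where 1 is full and 0 is none.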

G401 = system: G401
Procedure, shortened: as §1

HS729 = system: HS729
Procedure, shortened: as §1

KHOS-240S = system: KHOS-240S
Procedure, shortened: as §1

MES-SA = system: MES-SA
Procedure, shortened: as §1

SK-ES-1 = system: SK-ES-1
Procedure, shortened: as §1

SK-LMS-1 = system: SK-LMS-1
Procedure, shortened: as §1

SW1353 = system: SW1353
Procedure, shortened: as §1

SW684 = system: SW684
Procedure, shortened: as §1

SW872 = system: SW872
Procedure, shortened: as §1

SW982 = system: SW982
Procedure, shortened: as §1

SYO-1 = system: SYO-1
Procedure, shortened: as §1

COC(=O)c1ccc2c(c1)NC(=O)/C2=C(\Nc1ccc(N(C)C(=O)CN2CCN(C)CC2)cc1)c1ccccc1 [Nintedanib]
Details	relative viability
A204, 0.00017 µM	1.04
A204, 0.00051 µM	1.04
A204, 0.00152 µM	1.02
A204, 0.00457 µM	0.997
A204, 0.01372 µM	0.831
A204, 0.04115 µM	0.566
A204, 0.1235 µM	0.434
A204, 0.3704 µM	0.392
A204, 1.111 µM	0.376
A204, 3.333 µM	0.318
A204, 10 µM	0.22
G401, 0.00017 µM	1
G401, 0.00051 µM	0.99
G401, 0.00152 µM	0.992
G401, 0.00457 µM	1.03
G401, 0.01372 µM	0.98
G401, 0.04115 µM	0.987
G401, 0.1235 µM	0.977
G401, 0.3704 µM	0.891
G401, 1.111 µM	0.721
G401, 3.333 µM	0.485
G401, 10 µM	0.0535
HS729, 0.00017 µM	0.981
HS729, 0.00051 µM	1
HS729, 0.00152 µM	1.01
HS729, 0.00457 µM	0.99
HS729, 0.01372 µM	1.04
HS729, 0.04115 µM	0.973
HS729, 0.1235 µM	0.929
HS729, 0.3704 µM	0.863
HS729, 1.111 µM	0.738
HS729, 3.333 µM	0.626
HS729, 10 µM	0.119
KHOS-240S, 0.00017 µM	1.05
KHOS-240S, 0.00051 µM	1.05
KHOS-240S, 0.00152 µM	1.04
KHOS-240S, 0.00457 µM	1.04
KHOS-240S, 0.01372 µM	1.04
KHOS-240S, 0.04115 µM	1.02
KHOS-240S, 0.1235 µM	0.985
KHOS-240S, 0.3704 µM	0.875
KHOS-240S, 1.111 µM	0.702
KHOS-240S, 3.333 µM	0.6
KHOS-240S, 10 µM	0.101
MES-SA, 0.00017 µM	0.933
MES-SA, 0.00051 µM	0.93
MES-SA, 0.00152 µM	0.942
MES-SA, 0.00457 µM	0.928
MES-SA, 0.01372 µM	0.898
MES-SA, 0.04115 µM	0.944
MES-SA, 0.1235 µM	0.934
MES-SA, 0.3704 µM	0.958
MES-SA, 1.111 µM	0.92
MES-SA, 3.333 µM	0.804
MES-SA, 10 µM	0.583
SK-ES-1, 0.00017 µM	1
SK-ES-1, 0.00051 µM	0.951
SK-ES-1, 0.00152 µM	0.945
SK-ES-1, 0.00457 µM	0.961
SK-ES-1, 0.01372 µM	1.03
SK-ES-1, 0.04115 µM	1.03
SK-ES-1, 0.1235 µM	0.986
SK-ES-1, 0.3704 µM	0.883
SK-ES-1, 1.111 µM	0.571
SK-ES-1, 3.333 µM	0.399
SK-ES-1, 10 µM	0.0168
SK-LMS-1, 0.00017 µM	1.16
SK-LMS-1, 0.00051 µM	1.13
SK-LMS-1, 0.00152 µM	1.13
SK-LMS-1, 0.00457 µM	1.09
SK-LMS-1, 0.01372 µM	1.11
SK-LMS-1, 0.04115 µM	1.08
SK-LMS-1, 0.1235 µM	1.073
SK-LMS-1, 0.3704 µM	1.07
SK-LMS-1, 1.111 µM	1.03
SK-LMS-1, 3.333 µM	0.932
SK-LMS-1, 10 µM	0.145
SW684, 0.00017 µM	1.09
SW684, 0.00051 µM	1.11
SW684, 0.00152 µM	1.15
SW684, 0.00457 µM	1.12
SW684, 0.01372 µM	1.13
SW684, 0.04115 µM	1.17
SW684, 0.1235 µM	1.13
SW684, 0.3704 µM	1.11
SW684, 1.111 µM	1
SW684, 3.333 µM	0.96
SW684, 10 µM	0.422
SW872, 0.00017 µM	1.05
SW872, 0.00051 µM	1.03
SW872, 0.00152 µM	1.02
SW872, 0.00457 µM	1.03
SW872, 0.01372 µM	1.03
SW872, 0.04115 µM	1.03
SW872, 0.1235 µM	1.03
SW872, 0.3704 µM	1.04
SW872, 1.111 µM	0.989
SW872, 3.333 µM	0.963
SW872, 10 µM	0.809
SW982, 0.00017 µM	0.999
SW982, 0.00051 µM	0.996
SW982, 0.00152 µM	1
SW982, 0.00457 µM	0.994
SW982, 0.01372 µM	0.975
SW982, 0.04115 µM	0.965
SW982, 0.1235 µM	1
SW982, 0.3704 µM	0.961
SW982, 1.111 µM	0.87
SW982, 3.333 µM	0.823
SW982, 10 µM	0.0461
SW1353, 0.00017 µM	0.995
SW1353, 0.00051 µM	1.07
SW1353, 0.00152 µM	1.02
SW1353, 0.00457 µM	1.04
SW1353, 0.01372 µM	1.02
SW1353, 0.04115 µM	1.01
SW1353, 0.1235 µM	1.01
SW1353, 0.3704 µM	0.999
SW1353, 1.111 µM	0.958
SW1353, 3.333 µM	0.947
SW1353, 10 µM	0.57
SYO-1, 0.00017 µM	1
SYO-1, 0.00051 µM	0.985
SYO-1, 0.00152 µM	0.971
SYO-1, 0.00457 µM	0.97
SYO-1, 0.01372 µM	0.901
SYO-1, 0.04115 µM	0.713
SYO-1, 0.1235 µM	0.643
SYO-1, 0.3704 µM	0.467
SYO-1, 1.111 µM	0.369
SYO-1, 3.333 µM	0.292
SYO-1, 10 µM	0.099
